Data on three compounds can be found in publication PMC6035882 (Biochimie, 2018).

The structures appear in SMILES notation. Read-outs that look alike come from different tables or passages of the source.

Common to all, as to assay: 3H-2-deoxyglucose uptake inhibition in L929 cells
Holding throughout (assay type): cell-based

Experiment [1] concerns the target T1, GLUT1 (Mus musculus, UniProt P17809).
T1 sequence (P17809 1-492): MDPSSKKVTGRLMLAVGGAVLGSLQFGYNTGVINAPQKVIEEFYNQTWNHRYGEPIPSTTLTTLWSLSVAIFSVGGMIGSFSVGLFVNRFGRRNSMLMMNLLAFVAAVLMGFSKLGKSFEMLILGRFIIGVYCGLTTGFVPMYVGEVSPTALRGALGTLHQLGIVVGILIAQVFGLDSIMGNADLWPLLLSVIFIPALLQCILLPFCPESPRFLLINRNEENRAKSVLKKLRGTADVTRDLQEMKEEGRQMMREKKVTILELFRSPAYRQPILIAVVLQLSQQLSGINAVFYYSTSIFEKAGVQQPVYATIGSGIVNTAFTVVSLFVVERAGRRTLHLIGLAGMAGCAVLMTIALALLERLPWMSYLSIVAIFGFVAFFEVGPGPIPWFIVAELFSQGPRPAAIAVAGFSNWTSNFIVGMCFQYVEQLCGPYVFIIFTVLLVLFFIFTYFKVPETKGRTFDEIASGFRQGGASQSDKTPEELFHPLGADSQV

The target in experiment [2] is T1, GLUT1. The source holds these as a separate data set.
Experiment [3] concerns the target T1, GLUT1. This is another data set of the same source.

For orientation: IC50 means the midpoint of a concentration-inhibition curve. Low values mean greater potency in that assay, high ones weaker potency in that assay.

Compound `Cc1c(NC(=O)c2cc(C(N)=O)nc3cc(F)ccc23)c(C(F)(F)F)nn1Cc1ccc(C#N)cc1` [BAY-876] yielded an IC50 against GLUT1 [1] of 0.02 µM.
`O=c1c(O)c(-c2ccc(O)c(O)c2)oc2cc(O)cc(O)c12` [quercetin, 3,3′,4′5,7-pentahydroxyflavone] showed an IC50 against GLUT1 [2] of 8.5 µM.
Consider `O=C(Oc1cccc(F)c1OC(=O)c1cccc(O)c1)c1cccc(O)c1` [WZB-117], for which the IC50 against GLUT1 [3] was 8.5 µM.
